Results taken from the OPERA property sets (Mansouri et al. 2018).

OCC=CC#CC#Cc1ccccc1 showed a logP of 2.48. Compound CC#CC#Cc1ccc(C#CC(Cl)COC(C)=O)s1 (stereo unspecified) has a logP of 4.6. Compound C=CC#Cc1ccc(-c2cccs2)s1 has a logP of 5.15. With CC=CC#CC#Cc1ccccc1 the logP was 4.76. CC=CC#CC=C1C=CC(=O)O1 showed a logP of 2.09. With CC#CC#CC#CC=CC(=O)OC the logP was 3.85. CC=CC#CC#CC=CC(=O)OC gave a logP of 2.45. In the case of CC=CC#CC#CC#CC=CC(Cl)CO (stereo unspecified), the logP is reported as 3.91. For O=CC=CC#CC#Cc1ccccc1, the logP was 3.09. For c1csc(-c2ccc(-c3cccs3)s2)c1, the logP was 5.57. Compound CC#CC#CC#Cc1ccccc1 has a logP of 4.91.
